Data on one molecule can be found in patent US7465857B1, “Glyphosate tolerant perennial ryegrass” (priority 2004, dated 2008).

For one series, the system named is BAR Lp 2703. The series is classed as in vivo, Lolium perenne. To be noted: 40 days after first application, scale 1-9, 9=perfect turf. From the text:
(§1) This example provides methods and results of field trials in which the glyphosate tolerance characteristics of BAR Lp 2703 were examined and compared with Peak perennial ryegrass in Florence, S.C.
(§2) Peak and LP2703 perennial ryegrasses were overseeded at 350 lb/acre on dormant Bermuda grass base on Oct. 7, 2003. Turf quality was rated 7 times between Nov. 10, 2003 and Mar. 2, 2004. Turf quality fluctuated between 6.0 and 7.5 with changes in weather and fertilization (rated on a scale of 1-9 with 1=bare soil and 9=perfect turf).
(§3) Experimental treatments were 0, 3, 5, 6, 8, 10, and 16 ounces Roundup PROS per acre. One application of each treatment was applied on Mar. 12, 2004 to plots 3 feet wide by 6 feet long. The 3 and 6 oz/acre treatments were applied a second time on Mar. 28, 2004. There were two replications of each treatment applied to each cultivar. Applications were made in 2 gallons of water per 1000 square feet with a CO2-charged backpack sprayer.
(§4) Turf damage was rated on a scale of 0-9 with 0=no damage and 9=complete damage 7, 14, and 21 days after the first spray. Damage was not evident prior to 7 days.
(§5) The ratings shown in Table 10 were obtained 40 days after the first application of glyphosate (24 days after 2nd application).

The next series deals with EK-2703 (BAR Lp 2703). The series is classed as in vivo, Lolium perenne. To be noted: Average June/July 1998, 9=completely green. Here is the method: The mean turf color rating for the BAR LP 2703 variety in this perennial ryegrass turf trial that was seeded in the spring of 1998 (at 16 kg/ha) in Wolfheze was 7.6 in June/July 1998 (9=completely green).
Another series deals with Peak. The experiment in a line: Field trial Florence, S.C.: glyphosate tolerance, turf damage and turf quality. The series is classed as in vivo, perennial ryegrass. To be noted: 40 days after first application, scale 1-9, 9=perfect turf.
Excerpt: as §1, §2, §3, §4, §5

Molecules are shown by their SMILES. Like-named read-outs stand apart in the source and are kept apart here.

For `O=C(O)CNCP(=O)(O)O` [Glyphosate, N-(phosphonomethyl) glycine], the Turf quality ratings in the series with BAR Lp 2703 (3 oz/acre twice) came to 6.4; in the series with BAR Lp 2703 (5 oz/acre), 7.3; with BAR Lp 2703 (6 oz/acre twice), 5.8; in the series on BAR Lp 2703 (8 oz/acre), 7.8; in the series on BAR Lp 2703 (10 oz/acre), 8.0; in the series on BAR Lp 2703 (16 oz/acre), 6.5. For the same molecule, the Turf quality ratings is 5.4 in the series with Peak (3 oz/acre twice); 6.8 in the series with Peak (5 oz/acre); 2.5 in the series on Peak (6 oz/acre twice); 7.7 in the series on Peak (8 oz/acre); 7.0 in the series with Peak (10 oz/acre); 5.9 with Peak (16 oz/acre). For the same molecule, in the series on EK-2703 (BAR Lp 2703), the “Turf Color After Spraying” value amounted to 7.6.
